Laboratory results taken from article PMC7401714 (Japanese Journal of Clinical Oncology, 2020).

Legend:
advanced solid tumors = assay: Phase I; assay type: in vivo, human; settings: for PFS, single patient: 500 mg once daily
Phase I = assay type: in vivo, human; settings: for T lag / Tmax: median, [range]; for Tmax: human, in vivo, T max
[1] = test system: patients with advanced solid tumors; settings: first-in-man trial outside of Japan; cited from earlier work
[2] = test system: Japanese patients with advanced solid tumors; assay: Phase I dose escalation

## CN1CCC(COc2cnc(-c3cccc(Cn4nc(-c5cccc(C#N)c5)ccc4=O)c3)nc2)CC1 [Tepotinib]
Advanced solid tumors; all patients (n = 12), 90% CI
  median PFS: 1.38 (90% CI: 1.15–1.38) months
Advanced solid tumors; nine of 12 patients overall
  patients with BOR of disease progression: 75%
Advanced solid tumors; of 12 patients, both treated with 500 mg once daily
  patients with BOR of stable disease (SD) ≥12 weeks: 16.7%
Advanced solid tumors; patient with urachal cancer (MET status not evaluable)
  PFS, single patient: 12.9 months
Advanced solid tumors; patient, MET-expressing (IHC 2+) gastric cancer, four prior lines of chemotherapy
  PFS, single patient: 4.6 months
Phase I; 500 mg once daily
  Caverage at steady state, all patients: > 700 ng/mL
Phase I; Day 1, 215 mg once daily (n = 3)
  T lag: 1.95 [1.95–1.97] h
Phase I; Day 1, 300 mg once daily (n = 3)
  T lag: 0.97 [0.97–2.00] h
Phase I; Day 1, 500 mg once daily (n = 6)
  T lag: 0.99 [0.47–1.98] h
Phase I; after the first and multiple oral doses, 215–500 mg
  dose proportionality of exposure (Cmax, AUC0–t): less than dose proportional
Phase I; 215 mg, Day 1, 215 mg once daily (n = 3)
  Tmax: 8 h
Phase I; 215 mg, Day 14, 215 mg once daily (n = 3)
  Tmax: 8 h
Phase I; 300 mg, Day 1, 300 mg once daily (n = 3)
  Tmax: 8 h
Phase I; 300 mg, Day 14, 300 mg once daily (n = 3)
  Tmax: 9.9 h
Phase I; 500 mg, Day 1, 500 mg once daily (n = 6)
  Tmax: 10 h
Phase I; 500 mg, Day 14, 500 mg once daily (n = 5)
  Tmax: 4.1 h
Phase I; individual patients
  trough concentrations between cycles 1 and 4: remained stable
[1]
  dose up to which monotherapy was generally well tolerated: ≤ 1400 mg once daily
  maximum tolerated dose (MTD): could not be established
[2]; 215 mg once daily (n = 3)
  Patients with TEAE leading to treatment discontinuation: 0 n (%)
  Patients with any TEAE: 2 n (%)
  Patients with any grade ≥3 TEAE: 0 n (%)
  Patients with any related grade ≥3 TEAE: 0 n (%)
  Patients with any related serious TEAE: 0 n (%)
  Patients with any serious TEAE: 0 n (%)
  Patients with any treatment-related TEAE: 1 n (%)
  Patients with related TEAE leading to death: 0 n (%)
  Patients with related TEAE of special interest (lipase or amylase elevation of grade ≥3): 0 n (%)
  Tepotinib-related TEAE, Grade 3/4: Hyponatremia (grade 3): 0 n (%)
  Tepotinib-related TEAE, Grade 3/4: Lipase increase (grade 4): 0 n (%)
  Tepotinib-related TEAE, any grade: Acneiform dermatitis: 0 n (%)
  Tepotinib-related TEAE, any grade: Amylase increase: 0 n (%)
  Tepotinib-related TEAE, any grade: Decreased appetite: 1 n (%)
  Tepotinib-related TEAE, any grade: Dysgeusia: 1 n (%)
  Tepotinib-related TEAE, any grade: Fatigue: 1 n (%)
  Tepotinib-related TEAE, any grade: Hypoalbuminemia: 0 n (%)
  Tepotinib-related TEAE, any grade: Hyponatremia: 0 n (%)
  Tepotinib-related TEAE, any grade: Lipase increase: 0 n (%)
  Tepotinib-related TEAE, any grade: Nausea: 0 n (%)
  Tepotinib-related TEAE, any grade: Serum creatinine increase: 0 n (%)
  Tepotinib-related TEAE, any grade: Stomatitis: 0 n (%)
  Tepotinib-related TEAE, any grade: Vomiting: 0 n (%)
[2]; 215 mg once daily (n = 3), primary reason for death was disease progression
  Patients with TEAE leading to death: 0 n (%)
[2]; 300 mg once daily (n = 3)
  Patients with TEAE leading to treatment discontinuation: 0 n (%)
  Patients with any TEAE: 3 n (%)
  Patients with any grade ≥3 TEAE: 3 n (%)
  Patients with any related grade ≥3 TEAE: 0 n (%)
  Patients with any related serious TEAE: 0 n (%)
  Patients with any serious TEAE: 3 n (%)
  Patients with any treatment-related TEAE: 1 n (%)
  Patients with related TEAE leading to death: 0 n (%)
  Patients with related TEAE of special interest (lipase or amylase elevation of grade ≥3): 0 n (%)
  Tepotinib-related TEAE, Grade 3/4: Hyponatremia (grade 3): 0 n (%)
  Tepotinib-related TEAE, Grade 3/4: Lipase increase (grade 4): 0 n (%)
  Tepotinib-related TEAE, any grade: Acneiform dermatitis: 0 n (%)
  Tepotinib-related TEAE, any grade: Amylase increase: 0 n (%)
  Tepotinib-related TEAE, any grade: Decreased appetite: 0 n (%)
  Tepotinib-related TEAE, any grade: Dysgeusia: 0 n (%)
  Tepotinib-related TEAE, any grade: Fatigue: 1 n (%)
